Like-named read-outs stand apart in the source and are kept apart here.
How the values were obtained:
muscarinic M2 receptor = target: T1, muscarinic M2 receptor (Cavia porcellus, UniProt H0VRN8); assay: Muscarinic M2 antagonistic action in isolated guinea pig left atrium (carbachol-induced relaxation, Schild method); type: cell-based; settings: compound applied 30 minutes before carbachol
T1 construct: left atria were excised to prepare tissue specimens; from tissue; host or cells: isolated guinea pig left atrium (male Hartley)
T1 sequence (H0VRN8 1-466): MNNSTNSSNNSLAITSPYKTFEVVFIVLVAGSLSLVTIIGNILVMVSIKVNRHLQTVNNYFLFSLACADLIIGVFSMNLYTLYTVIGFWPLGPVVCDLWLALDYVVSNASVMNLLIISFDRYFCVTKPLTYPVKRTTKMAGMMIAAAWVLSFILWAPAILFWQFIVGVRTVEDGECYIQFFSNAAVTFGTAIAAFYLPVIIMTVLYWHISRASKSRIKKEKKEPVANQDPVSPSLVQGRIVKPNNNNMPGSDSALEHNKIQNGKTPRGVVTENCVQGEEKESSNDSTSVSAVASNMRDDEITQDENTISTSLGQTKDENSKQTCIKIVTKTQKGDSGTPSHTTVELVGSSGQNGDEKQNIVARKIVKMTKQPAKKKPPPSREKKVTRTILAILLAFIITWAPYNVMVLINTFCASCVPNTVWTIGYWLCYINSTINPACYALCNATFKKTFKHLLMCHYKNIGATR
Procedure: Muscarinic M2 Antagonistic Action in Isolated Guinea Pig Left Atrium […] Each tissue specimen was kept warm at 37° C., suspended with a resting tension of 0.5 g in a 5-mL Magnus bath filled with a Krebs carbonate buffer bubbled with 95% O2/5% CO2. Then, contraction evoked by field electrical stimulation (4 Hz, 2 msec, 1.5×threshold potential) was measured. After a stabilization period of 60 minutes, carbachol-induced relaxation was isometrically measured and recorded by the cumulative method from 10^−8 M with an interval of 90 seconds for one concentration in an equal ratio of 3. After the measurement, the tissue specimen was immediately washed, and left for 45 minutes as a stabilization period before the next observation. The tissue specimen of which EC50 for the carbachol-induced relaxation was stabilized was considered as a control. Each test compound was applied 30 minutes before the addition of carbachol. The affinity (pA2) of the test compound was obtained in the same manner as in the case of the trachea.

[1] = tested on: Bronchoconstriction in Guinea Pigs (induced with acetylcholine); assay: Effect on bronchoconstriction in guinea pigs (via inhalation administration), Konzett method; type: in vivo; settings: guinea pig, intratracheal administration 10 μL g/head, 24 hours after administration, acetylcholine 4 μg/kg i.v., versus control group; for inhibition in vivo at 0.01 mg: Cavia porcellus, iv, read-out: Percent of inhibition of bronchoconstriction (%)
Procedure: Effect on Bronchoconstriction in Guinea Pigs (Via Inhalation Administration)
The test was performed according to the method of Konzett et al. (Arch. Exp. Path Pharmak., 1940, 195, 71-74). Male Hartley guinea pigs (350 to 600 g) were anesthetized with urethane (1.8 g/kg, i.p.), and then a cannula for drug administration was inserted into each left jugular vein. After the immobilization with decamethonium (2 mg/kg, i.v.), a tracheal cannula was inserted, and controlled respiration was attained by a respirator (Harvard). Bronchoconstriction was measured as changes of airway pressure with a pressure transducer (Nihon Kohden Corp.). Each test compound was administered (10 μL g/head) from dissected trachea by using a device for intratracheal administration of liquid for guinea pigs (Penn Century), and after suture, the animals were returned to usual breeding. After 24 hours, acetylcholine (4 μg/kg, i.v.) was administered to induce bronchoconstriction, and inhibitory activity on bronchoconstriction was calculated as percent inhibition comparing to the change of airway pressure in control group was obtained.

muscarinic M3 receptor = target: T2, muscarinic M3 receptor (Cavia porcellus, UniProt H0W1Z3); assay: Muscarinic M3 antagonistic action in isolated guinea pig trachea (carbachol-induced contraction, Schild method); type: cell-based; settings: compound applied 15 minutes before carbachol
T2 construct: trachea was excised, and cut at every two tracheal cartilages to prepare tissue specimens; from tissue; host or cells: isolated guinea pig trachea (male Hartley)
T2 sequence (H0W1Z3 1-590): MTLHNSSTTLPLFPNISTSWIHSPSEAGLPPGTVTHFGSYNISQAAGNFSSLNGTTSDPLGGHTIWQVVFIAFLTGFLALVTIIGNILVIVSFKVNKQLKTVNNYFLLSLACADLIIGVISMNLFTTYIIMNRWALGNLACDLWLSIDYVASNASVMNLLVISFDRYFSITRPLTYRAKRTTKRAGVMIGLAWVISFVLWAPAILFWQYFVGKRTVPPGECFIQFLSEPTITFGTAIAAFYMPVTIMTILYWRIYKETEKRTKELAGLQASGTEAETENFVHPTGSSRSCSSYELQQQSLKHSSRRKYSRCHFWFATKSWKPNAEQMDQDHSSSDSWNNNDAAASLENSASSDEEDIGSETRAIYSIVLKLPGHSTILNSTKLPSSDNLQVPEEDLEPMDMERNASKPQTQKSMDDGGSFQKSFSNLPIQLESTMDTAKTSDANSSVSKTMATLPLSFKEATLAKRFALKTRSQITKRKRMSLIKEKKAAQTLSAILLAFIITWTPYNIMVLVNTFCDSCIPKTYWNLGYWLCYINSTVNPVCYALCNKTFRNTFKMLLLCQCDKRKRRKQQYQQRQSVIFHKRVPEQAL
Procedure: Muscarinic M3 Antagonistic Action in Isolated Guinea Pig Trachea
Male Hartley guinea pigs (350 to 600 g) were sacrificed by bleeding, and trachea was excised, and cut at every two tracheal cartilages to prepare tissue specimens. Each tissue specimen was kept warm at 37° C., suspended with a resting tension of 1 g in a 5-mL Magnus bath filled with a Krebs carbonate buffer containing indomethacin (1 μM) bubbled with 95% O2/5% CO2, and left for 60 minutes as a stabilization period. […] After the measurement, the tissue specimen was immediately washed, and left for 60 minutes as a stabilization period before the next contraction reaction, and the tissue specimen of which EC50 for the carbachol-induced contraction reaction was stabilized was considered as a control. Each test compound was applied 15 minutes before the addition of carbachol. The affinity (pA2) of the test compound was obtained by the Schild method (Arunlakshana, O. and Schild, H. O., Brit. J. Pharmacol., 1959, 14, 48-58).

[2] = isolated guinea pig left atrium
[3] = pA2 Left atrium M2, isolated guinea pig left atrium
[4] = pA2 Trachea M3, isolated guinea pig trachea
[5] = isolated guinea pig left atrium, read-out: pA2 Left atrium M2 (converted)
[6] = isolated guinea pig trachea, read-out: pA2 Trachea M3 (converted)

SMILES | Kb (muscarinic M2 receptor; [3]) [nM] | inhibition in vivo at 0.01 mg [1] [%] | Kb (muscarinic M3 receptor; [4]) [nM] | also measured
Cc1n(Cc2ccc(F)cc2)cc[n+]1[C@H]1CC[C@@H](C(C(N)=O)(c2ccccc2)c2ccccc2)C1.[Br-] (relative stereo) [Example 7, 3-(cis-3-(Carbamoyl(diphenyl)methyl)cyclopentyl)-1-(4-fluoro-benzyl)-2-methyl-1-3H-imidazol-1-ium bromide] | – | – | – | pA2 Left atrium M2 (muscarinic M2 receptor; [2]): 8.5; Percent of inhibition of bronchoconstriction (%) [1]: 90%; pA2 Trachea M3 (muscarinic M3 receptor; isolated guinea pig trachea): 9.6
Cc1cccc(C[n+]2ccn([C@H]3CC[C@@H](C(C(N)=O)(c4ccccc4)c4ccccc4)C3)c2C)c1 (relative stereo) [Example 8, 3-(cis-3-(Carbamoyl(diphenyl)methyl)cyclopentyl)-2-methyl-1-(3-methyl-benzyl)-3H-imidazol-1-ium bromide] | 10 | 90 | 0.316 | –
Cc1n(CC2CO2)cc[n+]1[C@H]1CC[C@@H](C(C(N)=O)(c2ccccc2)c2ccccc2)C1.[Br-] (relative stereo) [Example 22] | – | – | – | pA2 Left atrium M2 (muscarinic M2 receptor; [2]): 7.7; Percent of inhibition of bronchoconstriction (%) [1]: 80%; pA2 Trachea M3 (muscarinic M3 receptor; isolated guinea pig trachea): 9
COCC[n+]1ccn([C@H]2CC[C@@H](C(C(N)=O)(c3ccccc3)c3ccccc3)C2)c1C (relative stereo) [Example 26, 3-(cis-3-(Carbamoyl(diphenyl)methyl)cyclopentyl)-1-(2-methoxy-ethyl)-2-methyl-3H-imidazol-1-ium bromide] | 12.6 | 70 | 0.2 | –
Cc1n([C@H]2CC[C@@H](C(C(N)=O)(c3ccccc3)c3ccccc3)C2)cc[n+]1CC1CC1 (relative stereo) [Example 30, 3-(cis-3-(Carbamoyl(diphenyl)methyl)cyclopentyl)-1-cyclopropylmethyl-2-methyl-3H-imidazol-1-ium bromide] | – | 80 | – | –
Cc1n([C@H]2CC[C@@H](C(C(N)=O)(c3ccccc3)c3ccccc3)C2)cc[n+]1CC[C@H]1CO1.[Br-] (relative stereo) [Example 36, 3-(cis-3-(Carbamoyl(diphenyl)methyl)cyclopentyl)-2-methyl-1-(2-(S)-oxiranyl-ethyl)-3H-imidazo-1-ium bromide] | – | – | – | pA2 Left atrium M2 (muscarinic M2 receptor; [2]): 7.7; Percent of inhibition of bronchoconstriction (%) [1]: 90%; pA2 Trachea M3 (muscarinic M3 receptor; isolated guinea pig trachea): 9
Cc1n([C@H]2CC[C@@H](C(C(N)=O)(c3ccccc3)c3ccccc3)C2)cc[n+]1C(F)F (relative stereo) [Example 37, 3-(cis-3-(Carbamoyl(diphenyl)methyl)cyclopentyl)-1-difluoromethyl-2-methyl-3H-imidazol-1-ium bromide] | – | 80 | 0.794 | –
Cc1n([C@H]2CC[C@@H](C(C(N)=O)(c3ccccc3)c3ccccc3)C2)cc[n+]1CC1CCC1 (relative stereo) [Example 40, 3-(cis-3-(Carbamoyl(diphenyl)methyl)cyclopentyl)-1-cyclobutylmethyl-2-methyl-3H-imidazol-1-ium bromide] | 7.94 | 100 | 0.398 | –
CC1=[N+](C)CCN1[C@H]1CC[C@@H](C(C(N)=O)(c2ccccc2)c2ccccc2)C1 (relative stereo) [Example 56, 3-(cis-3-(Carbamoyl(diphenyl)methyl)cyclopentyl)-1,2-dimethyl-4,5-dihydro-3H-imidazol-1-ium iodide] | 31.6 | 100 | 2.51 | –
C[n+]1ccn([C@H]2CC[C@H](C(C(N)=O)(c3ccccc3)c3ccccc3)C2)c1 (relative stereo) [Example 59, 3-(trans-3-(Carbamoyl(diphenyl)methyl)cyclopentyl)-1-methyl-3H-imidazol-1-ium iodide] | 20 | 90 | 0.794 | –
Cc1nccn1[C@@H]1CC[C@H](C(C(N)=O)(c2ccccc2)c2ccccc2)C1 (relative stereo) [Reference Example 5, 2-(cis-3-(2-Methylimidazol-1-yl)cyclopentyl)-2,2-diphenylacetamide, reference compound] | – | 0 | – | Kb (muscarinic M2 receptor; [5]): 50.1 nM; Kb (muscarinic M3 receptor; [6]): 0.794 nM
CC1=NCCN1[C@@H]1CC[C@H](C(C(N)=O)(c2ccccc2)c2ccccc2)C1 (relative stereo) [Reference Example 13, 2-(cis-3-(2-Methyl-4,5-dihydroimidazol-1-yl)cyclopentyl)-2,2-diphenylacetamide, reference compound] | – | 20 | – | Kb (muscarinic M2 receptor; [5]): 79.4 nM; Kb (muscarinic M3 receptor; [6]): 5.01 nM
CC1=[N+](C)CCN1[C@@H]1CC[C@H](C(C(N)=O)(c2ccccc2)c2ccccc2)C1 [Example 60, 3-((1R,3S)-3-(Carbamoyl(diphenyl)methyl)cyclopentyl)-1,2-dimethyl-4,5-dihydro-3H-imidazol-1-ium para-toluenesulfonate] | – | 90 | – | Kb (muscarinic M2 receptor; [5]): 15.8 nM; Kb (muscarinic M3 receptor; [6]): 0.631 nM
Cc1n([C@H]2CC[C@@H](C(C(N)=O)(c3ccccc3)c3ccccc3)C2)cc[n+]1CCC(C)C [Example 79, 3-((1S,3R)-3-(Carbamoyl(diphenyl)methyl)cyclopentyl)-2-methyl-1-(3-methyl-butyl)-3H-imidazol-1-ium bromide] | 63.1 | – | 0.631 | –
CC#CC[n+]1ccn([C@H]2CC[C@@H](C(C(N)=O)(c3ccccc3)c3ccccc3)C2)c1C [Example 82] | 63.1 | – | 0.794 | –
Cc1n([C@H]2CC[C@@H](C(C(N)=O)(c3ccccc3)c3ccccc3)C2)cc[n+]1CCO.[Br-] [Example 84, 3-((1S,3R)-3-(Carbamoyl(diphenyl)methyl)cyclopentyl)-1-hydroxyethyl-2-methyl-3H-imidazol-1-ium bromide] | – | – | – | pA2 Left atrium M2 (muscarinic M2 receptor; [2]): 6.3; pA2 Trachea M3 (muscarinic M3 receptor; isolated guinea pig trachea): 8.2
Cc1n([C@H]2CC[C@@H](C(C(N)=O)(c3ccccc3)c3ccccc3)C2)cc[n+]1Cc1ccc(F)cc1 [Example 85, 3-((1S,3R)-3-(Carbamoyl(diphenyl)methyl)cyclopentyl)-1-(4-fluorobenzyl)-2-methyl-3H-imidazol-1-ium bromide] | 31.6 | – | 0.794 | –
Cc1n([C@@H]2CC[C@H](C(C(N)=O)(c3ccccc3)c3ccccc3)C2)cc[n+]1C(F)F [Example 92, 3-((1R,3S)-3-(Carbamoyl(diphenyl)methyl)cyclopentyl)-1-difluoromethyl-2-methyl-3H-imidazol-1-ium bromide] | 12.6 | – | 0.398 | –
Cc1n([C@H]2CC[C@@H](C(C(N)=O)(c3ccccc3)c3ccccc3)C2)cc[n+]1C [Example 94, 3-((1S,3R)-3-(Carbamoyl(diphenyl)methyl)cyclopentyl)-1,2-dimethyl-3H-imidazol-1-ium para-toluenesulfonate] | – | – | – | Kb (muscarinic M2 receptor; [5]): 100 nM; Kb (muscarinic M3 receptor; [6]): 0.794 nM
CC(C)[N+]1(C)[C@@H]2CC[C@H]1C[C@@H](OC(=O)C(CO)c1ccccc1)C2 (some centres unmarked) [Ipratropium, reference compound] | 3.98 | – | 1 | –

Source: patent publication US20100152261A1 (MITSUBISHI TANABE PHARMA CORPORATION, priority 2005, published 2010)
